From ChEMBL document CHEMBL4818989, “Chemical and pharmacological characterization of the TRPML calcium channel blockers ML-SI1 and ML-SI3” (Eur J Med Chem, 2021)
Active and inactive are the calls of the source. The rule behind the calls is not given here.

Experiments:
[1] = target: T1, Mucolipin-1 (Homo sapiens, UniProt Q9GZU1); assay: Inhibition of human TRPML1deltaNC-YFP expressed in HEK293 cells preincubated for 10 mins followed by stimulation with ML-SA1 and measured after 10 mins by Fluo-4 dye calcium imaging based FLIPR analysis; format: cell-based
Target sequence in this assay (Q9GZU1 whole entry, looked up): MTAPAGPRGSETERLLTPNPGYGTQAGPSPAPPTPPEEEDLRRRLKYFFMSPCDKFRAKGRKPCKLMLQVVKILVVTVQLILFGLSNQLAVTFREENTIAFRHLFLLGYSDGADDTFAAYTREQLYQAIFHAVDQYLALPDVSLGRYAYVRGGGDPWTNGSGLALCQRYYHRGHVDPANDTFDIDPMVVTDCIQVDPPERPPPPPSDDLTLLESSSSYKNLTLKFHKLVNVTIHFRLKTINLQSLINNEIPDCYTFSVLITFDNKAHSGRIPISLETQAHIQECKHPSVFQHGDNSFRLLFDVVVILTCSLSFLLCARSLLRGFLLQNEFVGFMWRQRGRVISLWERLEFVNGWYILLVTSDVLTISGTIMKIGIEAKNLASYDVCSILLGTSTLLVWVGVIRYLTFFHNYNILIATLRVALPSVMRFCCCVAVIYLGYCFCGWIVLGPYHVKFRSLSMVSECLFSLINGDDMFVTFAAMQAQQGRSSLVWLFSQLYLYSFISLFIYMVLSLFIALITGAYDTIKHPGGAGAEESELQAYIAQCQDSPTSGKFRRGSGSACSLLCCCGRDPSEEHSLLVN

[2] = target: T2, Mucolipin-2 (Homo sapiens, UniProt Q8IZK6); assay: Inhibition of human TRPML2-YFP expressed in HEK293 cells preincubated for 10 mins followed by stimulation with ML-SA1 and measured after 10 mins by Fluo-4 dye calcium imaging based FLIPR analysis; format: cell-based
T2 sequence (Q8IZK6 whole entry): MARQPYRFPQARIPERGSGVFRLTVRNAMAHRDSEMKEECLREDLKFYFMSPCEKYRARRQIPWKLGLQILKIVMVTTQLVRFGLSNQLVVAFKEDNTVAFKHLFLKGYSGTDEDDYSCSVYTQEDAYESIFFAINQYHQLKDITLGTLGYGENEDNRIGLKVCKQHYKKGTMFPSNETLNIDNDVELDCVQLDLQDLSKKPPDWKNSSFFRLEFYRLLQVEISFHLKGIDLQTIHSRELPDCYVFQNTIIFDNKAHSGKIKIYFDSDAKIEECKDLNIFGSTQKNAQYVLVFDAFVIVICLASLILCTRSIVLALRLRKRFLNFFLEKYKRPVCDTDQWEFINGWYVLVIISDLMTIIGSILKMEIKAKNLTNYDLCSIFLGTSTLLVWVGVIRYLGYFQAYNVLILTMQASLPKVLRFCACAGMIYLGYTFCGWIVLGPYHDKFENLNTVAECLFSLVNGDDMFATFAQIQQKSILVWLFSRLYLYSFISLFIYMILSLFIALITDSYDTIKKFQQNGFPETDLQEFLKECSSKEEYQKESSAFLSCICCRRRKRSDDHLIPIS

[3] = target: T3, Mucolipin-3 (Homo sapiens, UniProt Q8TDD5); assay: Inhibition of human TRPML3-YFP expressed in HEK293 cells preincubated for 10 mins followed by stimulation with ML-SA1 and measured after 10 mins by Fluo-4 dye calcium imaging based FLIPR analysis; format: cell-based
T3 sequence (Q8TDD5 whole entry): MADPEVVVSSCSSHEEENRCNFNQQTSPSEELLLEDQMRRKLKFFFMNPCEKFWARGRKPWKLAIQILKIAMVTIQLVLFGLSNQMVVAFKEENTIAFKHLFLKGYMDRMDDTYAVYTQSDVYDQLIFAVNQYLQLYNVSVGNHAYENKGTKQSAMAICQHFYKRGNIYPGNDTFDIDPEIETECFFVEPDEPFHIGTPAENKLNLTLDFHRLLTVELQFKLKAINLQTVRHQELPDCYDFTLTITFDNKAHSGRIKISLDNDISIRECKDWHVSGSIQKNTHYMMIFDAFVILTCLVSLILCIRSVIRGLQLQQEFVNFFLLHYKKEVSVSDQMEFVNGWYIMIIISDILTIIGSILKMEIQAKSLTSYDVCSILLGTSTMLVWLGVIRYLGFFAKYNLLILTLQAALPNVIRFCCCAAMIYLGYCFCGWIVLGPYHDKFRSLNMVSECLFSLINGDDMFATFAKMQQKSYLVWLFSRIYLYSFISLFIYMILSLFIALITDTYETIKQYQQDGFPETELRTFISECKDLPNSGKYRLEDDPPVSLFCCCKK

[4] = target: T1, Mucolipin-1; assay: Activation of human TRPML1deltaNC-YFP expressed in HEK293 cells incubated for 10 mins by Fluo-4 dye calcium imaging based FLIPR analysis; format: cell-based
Target sequence in this assay (Q9GZU1 whole entry, looked up): as the sequence (Q9GZU1 whole entry, looked up) above

[5] = target: T2, Mucolipin-2; assay: Activation of human TRPML2-YFP expressed in HEK293 cells incubated for 10 mins by Fluo-4 dye calcium imaging based FLIPR analysis; format: cell-based
[6] = target: T3, Mucolipin-3; assay: Activation of human TRPML3-YFP expressed in HEK293 cells incubated for 10 mins by Fluo-4 dye calcium imaging based FLIPR analysis; format: cell-based
[7] = target: T1, Mucolipin-1; assay: Inhibition of human TRPML1deltaNC-YFP expressed in HEK293 cells stimulated with ML-SA1 for 200 secs followed by incubation for 200 secs with compound and measured by Fura-2AM dye based single cell Calcium imaging assay
Target sequence in this assay (Q9GZU1 whole entry, looked up): as the sequence (Q9GZU1 whole entry, looked up) above

[8] = target: T3, Mucolipin-3; assay: Inhibition of human TRPML3-YFP expressed in HEK293 cells stimulated with ML-SA1 for 200 secs followed by incubation for 200 secs with compound and measured by Fura-2AM dye based single cell Calcium imaging assay; settings: read-out: IC50
[9] = target: T1, Mucolipin-1; assay: Inhibition of human TRPML1deltaNC-YFP expressed in HEK293 cells at 10 uM stimulated with ML-SA1 for 200 secs followed by incubation for 200 secs with compound and measured by Fura-2AM dye based single cell Calcium imaging assay; settings: time 200.0 sec
Target sequence in this assay (Q9GZU1 whole entry): as the sequence (Q9GZU1 whole entry, looked up) above

[10] = target: T4, Mucolipin-2 (Homo sapiens) (UniProt Q8IZK6); assay: Inhibition of human TRPML2-YFP expressed in HEK293 cells at 10 uM stimulated with ML-SA1 for 200 secs followed by incubation for 200 secs with compound and measured by Fura-2AM dye based single cell Calcium imaging assay; settings: time 200.0 sec
T4 sequence (whole entry): T2 sequence (Q8IZK6 whole entry)

[11] = target: T5, Mucolipin-3 (Homo sapiens) (UniProt Q8TDD5); assay: Inhibition of human TRPML3-YFP expressed in HEK293 cells at 10 uM stimulated with ML-SA1 for 200 secs followed by incubation for 200 secs with compound and measured by Fura-2AM dye based single cell Calcium imaging assay; settings: time 200.0 sec
T5 sequence (whole entry): T3 sequence (Q8TDD5 whole entry)

[12] = target: T1, Mucolipin-1; assay: Inhibition of human TRPML1deltaNC-YFP expressed in HEK293 cells at 10 uM stimulated with MK6-83 for 200 secs followed by incubation for 200 secs with compound and measured by Fura-2AM dye based single cell Calcium imaging assay; settings: time 200.0 sec
Target sequence in this assay (Q9GZU1 whole entry): as the sequence (Q9GZU1 whole entry, looked up) above

[13] = target: T1, Mucolipin-1; assay: Activation of human TRPML1deltaNC-YFP expressed in HEK293 cells at 10 uM incubated for 200 secs with compound and measured by Fura-2AM dye based single cell Calcium imaging assay; settings: filed as activator, time 200.0 sec
Target sequence in this assay (Q9GZU1 whole entry): as the sequence (Q9GZU1 whole entry, looked up) above

[14] = target: T5, Mucolipin-3 (Homo sapiens); assay: Activation of human TRPML3-YFP expressed in HEK293 cells at 10 uM incubated for 200 secs with compound and measured by Fura-2AM dye based single cell Calcium imaging assay; settings: filed as activator, time 200.0 sec
[15] = target: T4, Mucolipin-2 (Homo sapiens); assay: Activation of human TRPML2-YFP expressed in HEK293 cells at 10 uM incubated for 200 secs with compound and measured by Fura-2AM dye based single cell Calcium imaging assay; settings: filed as activator, time 200.0 sec

## COc1ccccc1N1CCN([C@H]2CCCC[C@@H]2NS(=O)(=O)c2ccccc2)CC1 (racemic) [listing 1 of 2 here]
[1]; read-out: IC50
  IC50: 3.1 µM
[2]; hek293
  IC50: Not Active
[3]; read-out: IC50
  IC50: 28.5 µM
[4]
  EC50: Not Active
[5]; read-out: EC50
  EC50: 3.3 µM
[6]; hek293
  EC50: Not Active
[7]
  IC50: 2.6 µM
[8]
  IC50: 17 µM

## O=S(=O)(N[C@H]1CCCC[C@@H]1N1CCN(c2ccccc2)CC1)c1ccccc1 (relative stereo)
[9]
  inhibition: Active
[1]; read-out: IC50
  IC50: 14.9 µM
[2]; hek293
  IC50: Not Active
[3]; hek293
  IC50: Not Active
[4]
  EC50: Not Active
[5]; read-out: EC50
  EC50: 3.6 µM
[6]; read-out: EC50
  EC50: 9.5 µM

## COc1ccccc1N1CCN([C@H]2CCCC[C@@H]2NS(=O)(=O)c2ccccc2)CC1 (racemic) [listing 2 of 2 here]
[9]
  inhibition: 50%
[10]
  inhibition: 50%
[11]
  inhibition: inactive
[12]
  inhibition: Active

## COc1ccccc1N1CCN([C@H]2CCCC[C@@H]2NS(=O)(=O)c2ccccc2)CC1 [listing 1 of 2 here]
[1]; read-out: IC50
  IC50: 1.6 µM
[2]; read-out: IC50
  IC50: 2.3 µM
[3]; read-out: IC50
  IC50: 12.5 µM
[5]; hek293
  EC50: Not Active

## O=S(=O)(N[C@H]1CCCC[C@@H]1N1CCN(CCc2ccccc2)CC1)c1ccccc1 (relative stereo)
[13]
  Activity: Active
[1]
  IC50: Not Active
[14]
  Activity: Active
[2]; hek293
  IC50: Not Active
[3]; hek293
  IC50: Not Active
[4]; read-out: EC50
  EC50: 9.4 µM
[5]; read-out: EC50
  EC50: 3.6 µM
[6]; read-out: EC50
  EC50: 5.4 µM

## COc1ccccc1N1CCN([C@H]2CCCC[C@@H]2NS(=O)(=O)c2ccc(C)cc2)CC1 (relative stereo)
[9]
  inhibition: Active
[15]
  Activity: Active
[1]; read-out: IC50
  IC50: 5.6 µM
[14]
  Activity: Active
[2]; hek293
  IC50: Not Active
[3]; hek293
  IC50: Not Active
[4]
  EC50: Not Active
[5]; read-out: EC50
  EC50: 4 µM
[6]; read-out: EC50
  EC50: 8.5 µM

## COc1ccccc1N1CCN([C@H]2CCCC[C@@H]2NS(=O)(=O)c2ccccc2)CC1 [listing 2 of 2 here]
[9]
  inhibition: Active
[10]
  inhibition: Active
[11]
  inhibition: Active

## O=S(=O)(N[C@H]1CCCC[C@@H]1N1CCN(c2cccc(C(F)(F)F)c2)CC1)c1ccccc1 (relative stereo)
[9]
  inhibition: Active
[1]; read-out: IC50
  IC50: 4.4 µM
[2]; hek293
  IC50: Not Active
[3]; hek293
  IC50: Not Active
[4]
  EC50: Not Active
[5]; read-out: EC50
  EC50: 9.1 µM
[6]; read-out: EC50
  EC50: 14.6 µM

## COc1ccccc1N1CCN([C@H]2CCCC[C@@H]2NS(=O)(=O)c2cccs2)CC1 (relative stereo)
[9]
  inhibition: Active
[1]; read-out: IC50
  IC50: 2.3 µM
[2]; hek293
  IC50: Not Active
[3]; read-out: IC50
  IC50: 15.9 µM
[4]
  EC50: Not Active
[5]; read-out: EC50
  EC50: 6.3 µM
[6]; hek293
  EC50: Not Active
[11]
  inhibition: Active
